Experimental findings from patent publication US20050042213A1, “Methods and pharmaceutical compositions for modulating heparanase activation and uses thereof” (InSight Biopharmaceuticals Ltd., priority 2003, published 2005) are described below.

The term IC50 denotes the point on the concentration scale where inhibition reaches its midpoint. Read a low IC50 as greater potency in that assay.

For one test, the system named is HT1080 cells. Description: In vitro assay of invasion inhibition (matrigel, BD BioCoat). It is filed as cell-based. The note with it: Homo sapiens, HT-1080. On the procedure: In vitro assay of invasion inhibition—The ability of the compounds of the invention to inhibit cell invasion was determined quantitatively by the in vitro Endothelial Cell Migration assay using a BD BioCoat Angiogenesis System kit. The kit consisted of a 24-multiwell insert plate (FluoroBlok, BD Falcon) containing a microporous (3.0 μm pore size) polyethylene terephthalate (PET) membrane that was capable of blocking fluorescence completely (>99% efficiency). This membrane was uniformly coated with matrigel (BD Matrigel Matrix). The uniform layer of matrigel matrix served as a reconstituted authentic basement membrane in vitro, providing a true barrier to non-invasive cells, but allowing endothelial cells to attach to the membrane and freely migrate towards an angiogenic stimulus in the lower chamber of the insert plate. Post-labeling the cells with a fluorescent dye and measuring the fluorescence of invading cells in a fluorescent plate reader, provided quantitative measurement of cell invasion.
To cover the optimal seeding density for HT1080 cells, suspensions containing various cell concentrations were prepared: 1 ml of 3×10^5 cells/ml, 8 ml of 1.5×10^5 cells/ml and 1 ml of 0.75×10^5 cells/ml. […] Only those labeled cells that have invaded the matrigel and passed through the pores of the PET membrane, were detected.

In a further test the target is T1, VEGF (Homo sapiens, UniProt P15692).
T1 sequence (P15692 27-191 isoform P15692-4): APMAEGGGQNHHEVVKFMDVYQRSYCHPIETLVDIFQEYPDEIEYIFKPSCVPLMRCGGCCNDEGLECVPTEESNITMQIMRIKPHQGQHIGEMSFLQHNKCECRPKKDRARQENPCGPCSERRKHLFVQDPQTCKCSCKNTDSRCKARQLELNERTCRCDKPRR
Description: Elisa assay for binding of VEGF to heparin. The note with it: inhibition of VEGF binding to heparin. On the procedure:
Elisa assay for determination of binding of VEGF to heparin—96 well microplates were coated overnight with Heparin-albumin (Lizard) and blocked with 1% BSA in PBS with 0.05% Tween and 0.01% thimerosal for 2 hrs. VEGF was added to the plates at a concentration of 2 ng/ml and incubated for 45 min. at 23-25° C. The amount of VEGF bound to heparin was detected using anti-VEGF monoclonal antibody (Sigma Cat. # V4758) at a concentration of 0.26 μg/ml and secondary antibodies Sheep anti-mouse IgG linked to horseradish peroxidase (1:2000). TMB (Pierce Cat. #34021) was used as a substrate for peroxidase.
(§1) The plates were read at 450 nm with a reference wavelength of 630 nm using a VERSAmax plate reader. […] Percent inhibition was calculated as compared with the control reactions pre-incubated with 1% DMSO only.

A further test has as its target T2, β-FGF (Homo sapiens, UniProt P09038).
T2 construct: purchased Sigma F0291
Put plainly: Elisa assay for binding of β-FGF to heparin. The note with it: inhibition of β-FGF binding to heparin. Here is the method: Elisa assay for determination of binding of β-FGF to heparin—96 well microplates were coated overnight with Heparin-albumin (Lizard) and blocked with 1% BSA in PBS with 0.05% Tween and 0.01% thimerosal for 2 hrs. β-FGF was added to the plates at a concentration of 0.8 ng/ml and incubated for 45 min at 23-25° C. The amount of β-FGF bound to heparin was detected using anti-FGF monoclonal antibody (Sigma Cat. # F6162) at a concentration of 2.5 ng/ml and secondary antibodies Sheep anti-mouse IgG linked to horseradish peroxidase (1:3000). TMB (Pierce Cat. #34021) was used as a substrate for peroxidase.
as §1

The target in another test is T3, heparanase (H53) (Homo sapiens, UniProt Q9Y251, K307R).
T3 sequence (Q9Y251 158-543 K307R limits assumed): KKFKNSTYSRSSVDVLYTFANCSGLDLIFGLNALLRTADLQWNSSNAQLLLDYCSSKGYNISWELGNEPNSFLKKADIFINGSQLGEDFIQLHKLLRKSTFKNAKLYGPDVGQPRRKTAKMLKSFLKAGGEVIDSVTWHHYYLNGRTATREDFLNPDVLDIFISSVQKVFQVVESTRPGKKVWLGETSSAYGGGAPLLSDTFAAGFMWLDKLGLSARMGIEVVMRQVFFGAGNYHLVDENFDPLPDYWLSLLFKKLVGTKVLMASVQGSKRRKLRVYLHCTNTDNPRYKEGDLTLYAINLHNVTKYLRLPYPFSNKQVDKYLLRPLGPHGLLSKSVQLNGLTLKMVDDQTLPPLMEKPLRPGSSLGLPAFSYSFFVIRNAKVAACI
T3 sequence (Q9Y251 36-109 limits assumed): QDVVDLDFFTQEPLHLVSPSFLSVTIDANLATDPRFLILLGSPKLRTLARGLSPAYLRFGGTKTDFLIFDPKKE
Description: Heparanase activity inhibition (H53), DMB assay. It is filed as biochemical. On the procedure: At the end of the incubation, the cells were lysed by three consecutive cycles of freezing and thawing in a −80° C. Freezer and a 37° C. shaker. Formation of active heparanase was detected by determination of heparanase activity in DMB assay as described in patent application U.S. Pat. No. 6,190,875B.

T2 sequence (P09038 143-288): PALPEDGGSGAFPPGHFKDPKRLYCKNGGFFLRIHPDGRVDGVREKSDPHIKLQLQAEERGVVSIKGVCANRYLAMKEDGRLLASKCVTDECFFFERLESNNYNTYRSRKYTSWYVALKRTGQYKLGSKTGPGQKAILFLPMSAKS

As to `O=C(O)CCCN1C(=O)C(=Cc2ccc(-c3ccc([N+](=O)[O-])cc3)o2)SC1=S` [Compound 5], the IC50 came to 12 µM in the test on HT1080 cells; 3.2 µM on VEGF; 6.1 µM on β-FGF; 12.5 µM at heparanase (H53) (heparanase activity inhibition (H53), NI = no inhibition). Also, on heparanase (H53), the “heparanase activity inhibition (H53) in addition to inhibition of pro-heparanase activation” value was “dual activity”.
